Reference: PMC5482315 (Biochimica et Biophysica Acta, 2017)
Read-outs that look alike come from different tables or passages of the source.

What was measured:
[1] = biological target: T1, VanSA (Enterococcus faecium, UniProt Q06240); experiment: VanSA autophosphorylation activity assay (Universal Kinase Activity Kit); type: biochemical, Enterococcus faecium BM4147; settings: n = 3, result in words; for activity of VanSA (autophosphorylation): 5-fold molar equivalent of ligand, 20 min pre-incubation, 40 min with ATP, 25 mM HEPES pH 8.0, OD620 malachite green; for phosphorylation states of VanSA (activity profile): activity profile over 40 min
Description: Assays were conducted as per the instructions provided in the R&D Systems Universal Kinase Activity Kit (Catalogue # EA004, R&D), changing the pH to 8.0; therefore all assays were conducted in 25 mM HEPES pH 8.0, 150 mM NaCl, 10 mM MgCl2, and 10 mM CaCl2. Compatibility checks for the activity of CD39L2 were made in the new conditions. A phosphate standard curve in the new assay conditions was used to determine the conversion factor (CF) for CD39L2 by calculating the slope of OD620 × phosphate input (KH2PO4). This CF was used in later calculations to determine the amount of PO4^2 − produced in later experiments. For ligand screens, VanSA (0.2 μg) was incubated in the absence and presence of 5-fold molar equivalent of ligands for 20 min prior to the initiation of autophosphorylation by the addition of ATP; after which autophosphorylation was allowed to proceed for 40 min before reactions were stopped by the addition of 30 μl Malachite Green Reagent A (ammonium molybdate in 3 M sulphuric acid) at t = 60. 100 μl distilled H2O was added to each well, followed by 30 μl of Malachite Reagent B (malachite green oxalate and polyvinyl alcohol) and the colour allowed to develop for 20 min before determining the optical density at 620 nm.

[2] = biological target: T1, VanSA; experiment: thermal denaturation of VanSA by far-UV CD (melting temperature); type: binding, Enterococcus faecium BM4147; settings: 5-fold molar equivalent of ligand; for Melting temperature (Tm) of VanSA in the presence of screened ligands: monitored at 222 nm, 20–95 °C in 5 °C increments, 10 mM Tris–HCl pH 8.0 ligand stocks, 30 min at 20 °C, VanSA alone 44 ± 0.71
Description: (§1) Ligand-containing samples were performed by addition of 5-fold molar equivalent of ligand stocks in 10 mM Tris–HCl pH 8.0 (control incubated with equivalent volume of 10 mM Tris–HCl pH 8.0). All samples were incubated at 20 °C for 30 min prior to data collection. All data was analysed using CDApps where the mean residue weight of VanSA was taken to be 113. Unless otherwise stated, all spectra presented are difference spectra where all relevant background buffers, ligands etc. have been subtracted. Data acquired when the HT of the detector (PMT) was equal to or > 600 V were excluded from the analyses. Far-UV measurements (180–260 nm) were commonly collected using 0.5 mg/ml of VanSA with bandwidth of 1 nm and 1 s integration time. Data presented in molar extinction (Δε). Temperature denaturation measurements were collected over the temperatures (20 °C–95 °C, in 5 °C increments) in the absence and presence of ligands. Samples were incubated at the initial 20 °C for 30 min after ligand or solvent addition prior to data acquisition. At each temperature step, reactions were incubated for 2 min prior to data collection (1 scan). A final scan was acquired post-temperature ramp after returning to 20 °C and incubation for 20 min before data acquisition. Data was analysed using CDApps to obtain difference spectra where all controls (buffers, ligands, etc.) had been subtracted. Change in CD (mdeg) at a specific wavelength was transferred to OriginPro® 9 and plotted against the corresponding temperature for fitting using Gibbs-Helmholtz equation derived from Boltzmann distribution, [65] sigmoidal two-state denaturation curve to a Boltzmann distribution and the expression modified to include parameters for fitting of thermal denaturation data for the calculation of the melting temperature (Tm).

[3] = system: VanSsc; parameters: method as in PMID 20383152; settings: result in words; cited from earlier work
Text: The nature of the activating inducer for VanA-type resistance remains unknown. […] Other proposed ligands include the antibiotic-peptidoglycan precursor complex and the accumulating peptidoglycan precursors as a result of vancomycin mode of action, [54]. Here, we describe the use of in vitro approaches to further characterise the ligand-induced activities of VanSA. || Previous studies identified a 4-amino-acid motif (DQGW) from the predicted extracellular binding region of VanSsc (equivalent to the type B VanS receptor in soil actinomycetes) to which a modified vancomycin photoaffinity probe bound.

[4] = biological target: T1, VanSA; experiment: fluorescence emission of VanSA Trp residues with antibiotics; type: binding, Enterococcus faecium BM4147; settings: excitation 295 nm, equivalent ratio 1:7, 23 °C; n = 3; VanSA alone λmax 334 nm (blue shift)
Description: Fluorescence spectroscopy was carried out using a Chirascan-Plus CD Spectrometer (Applied Photophysics) using 1 cm pathlength cell (1 cm × 1 cm, 4 mm × 4 mm window) at 23 °C, 5 nm bandwidth and 600 V, 295 nm excitation wavelength to excite the VanSA Trp residues was applied to the sample and emission monitored between 300 and 500 nm in 1 nm increments. Samples incubated at 20 °C for 30 min prior to data collection.
Data analysis performed using CDApps to obtain values which have been buffer subtracted and dilution-corrected for all components (F values) (protein only, ligand only, protein-ligand). Fo values were determined by normalisation to the initial value for each condition, followed by calculation of F/Fo using OriginPro® 9. Standard deviation (n = 3) shown by error bars.

[5] = biological target: T1, VanSA; experiment: near-UV CD ligand binding screen of VanSA; parameters: species or system Enterococcus faecium BM4147; settings: 5-fold molar equivalent of ligand, qualitative
Description: Ligand-containing samples were performed by addition of 5-fold molar equivalent of ligand stocks in 10 mM Tris–HCl pH 8.0 (control incubated with equivalent volume of 10 mM Tris–HCl pH 8.0). All samples were incubated at 20 °C for 30 min prior to data collection. All data was analysed using CDApps where the mean residue weight of VanSA was taken to be 113. Unless otherwise stated, all spectra presented are difference spectra where all relevant background buffers, ligands etc. have been subtracted. Data acquired when the HT of the detector (PMT) was equal to or > 600 V were excluded from the analyses. Far-UV measurements (180–260 nm) were commonly collected using 0.5 mg/ml of VanSA with bandwidth of 1 nm and 1 s integration time. Data presented in molar extinction (Δε). […] Data was analysed using CDApps to obtain difference spectra where all controls (buffers, ligands, etc.) had been subtracted. […]
Near-UV measurements (260–350 nm) were collected using 1 mg/ml of protein using 10 mm pathlength cell, 2 nm bandwidth, 1 nm increments and 1 s integration. […] Change in CD (mdeg) a specific wavelength was monitored, the values transferred to OriginPro® and plotted against respective ligand concentration (M) and fitted with a hill1 binding or biphasic dose response function to determine the kd for binding.

[6] = biological target: T1, VanSA; experiment: near-UV CD titration of VanSA with ligand (binding constant); parameters: species or system Enterococcus faecium BM4147
Description: as §1
Near-UV measurements (260–350 nm) were collected using 1 mg/ml of protein using 10 mm pathlength cell, 2 nm bandwidth, 1 nm increments and 1 s integration. Titration experiments were conducted as described for standard near-UV measurements, with the modification of measurements collected after the addition of incremental volumes of ligand stock as described previously, [70]. Change in CD (mdeg) a specific wavelength was monitored, the values transferred to OriginPro® and plotted against respective ligand concentration (M) and fitted with a hill1 binding or biphasic dose response function to determine the kd for binding.

[7] = cited from earlier work; for Kd: surface plasmon resonance and other studies, read-out: kd for vancomycin binding
Text: Using model cell wall precursor peptides such as N-acetyl-D-Ala-D-Ala, binding studies in aqueous solution have established that for many glycopeptides, the formation of entropically favourable asymmetric, back-to-back homodimers of the antibiotic, [11], [12] is mediated by sugar-sugar recognition, [13].

T1 sequence (Q06240 whole entry): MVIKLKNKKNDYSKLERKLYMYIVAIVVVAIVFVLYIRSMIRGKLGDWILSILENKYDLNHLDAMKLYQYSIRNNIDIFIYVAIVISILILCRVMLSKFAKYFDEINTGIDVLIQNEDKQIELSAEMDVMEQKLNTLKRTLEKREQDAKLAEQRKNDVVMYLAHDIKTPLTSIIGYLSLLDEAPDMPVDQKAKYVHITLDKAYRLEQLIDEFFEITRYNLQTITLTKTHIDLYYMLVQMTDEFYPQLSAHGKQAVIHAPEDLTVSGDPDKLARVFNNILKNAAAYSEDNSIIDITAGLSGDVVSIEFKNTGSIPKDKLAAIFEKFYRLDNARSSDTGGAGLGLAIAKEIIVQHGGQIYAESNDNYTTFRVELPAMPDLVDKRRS

CC(=O)N[C@@H]1[C@@H](O)[C@H](O)[C@@H](CO)O[C@H]1O [N-acetylglucosamine, N-Acetyl-D-glucosamine]
activity of VanSA (autophosphorylation) [1]: decreases in activity

CC(=O)N[C@H]1C(O)O[C@H](CO)[C@@H](O)[C@@H]1O[C@H](C)C(=O)O (some centres unmarked) [N-acetylmuramic acid, N-Acetylmuramic acid]
activity of VanSA (autophosphorylation) [1]: decreases in activity
Melting temperature (Tm) of VanSA in the presence of screened ligands [2]: 44 ± 0.63 °C

CN[C@H](CC(C)C)C(=O)N[C@H]1C(=O)N[C@@H](CC(N)=O)C(=O)N[C@H]2C(=O)N[C@H]3C(=O)N[C@H](C(=O)N[C@H](C(=O)O)c4cc(O)cc(O)c4-c4cc3ccc4O)[C@H](O)c3ccc(c(Cl)c3)Oc3cc2cc(c3O[C@@H]2O[C@H](CO)[C@@H](O)[C@H](O)[C@H]2O[C@H]2C[C@](C)(N)[C@H](O)[C@H](C)O2)Oc2ccc(cc2Cl)[C@H]1O [vancomycin]
binding to VanS of actinomycetes [3]: shown to bind in type A equivalent systems of actinomycetes
fluorescence emission λmax of VanSA upon addition of antibiotic [4]: 328 nm
changes in local tertiary structure (tyrosine/tryptophan region) [5]: changes to the tyrosine/tryptophan region
Kd [6]: 70 µM
binding mechanism ([6]; near-UV CD titration): one-step process of moderate affinity
Hill coefficient ([6]; near-UV CD titration, Hill 1 function): 1.65 ± 0.84
Kd ([7]; ref 17): 1.32 µM
Kd ([7]; ref 18): 2.7 µM
Kd ([7]; ref 19): 3.39 µM
activity of VanSA (autophosphorylation) [1]: significant increases in the activity
phosphorylation states of VanSA (activity profile) [1]: quicker, longer-lived phosphorylation states
thermal stability of VanSA ([2]; far-UV thermal denaturation, result in words): significant increase of the thermal stability
Melting temperature (Tm) of VanSA in the presence of screened ligands [2]: 79 ± 4.04 °C

Ala-D-γ-Glu-Lys-D-Ala-D-Ala [peptidoglycan component]
Melting temperature (Tm) of VanSA in the presence of screened ligands [2]: 51 ± 3.23 °C

D-Ala-D-Ala
Melting temperature (Tm) of VanSA in the presence of screened ligands [2]: 48 ± 4.07 °C

teicoplanin
fluorescence emission λmax of VanSA upon addition of antibiotic [4]: 329 nm
changes in local tertiary structure (tyrosine/tryptophan region) [5]: changes to the tyrosine/tryptophan region
binding mechanism ([6]; near-UV CD titration): two-step mechanism
Hill coefficient ([6]; near-UV CD titration, Bi Dose Response function, two-step, first value): 0.97 ± 0.77
Hill coefficient ([6]; near-UV CD titration, Bi Dose Response function, two-step, second value): 0.977 ± 0.76
Kd ([6]; near-UV CD titration, change in CD (mdeg) at 292 nm, BidoseResponse function, two-step mechanism, first value printed in picture, VanSA 1 mg/ml, n = 4, read-out: Binding constant (kd)): 170 µM
Kd ([6]; near-UV CD titration, change in CD (mdeg) at 292 nm, BidoseResponse function, two-step mechanism, second value printed in picture, VanSA 1 mg/ml, n = 4, read-out: Binding constant (kd)): 30 µM
potency compared with vancomycin ([7]; in vitro and in vivo, result in words): greater potency than vancomycin
activity of VanSA (autophosphorylation) [1]: significant increases in the activity
phosphorylation states of VanSA (activity profile) [1]: quicker, longer-lived phosphorylation states
Melting temperature (Tm) of VanSA in the presence of screened ligands [2]: 47 ± 5.08 °C
